Patent US10533010B2, “Substituted indole Mcl-1 inhibitors” (Vanderbilt University, priority 2014, dated 2020)
Like-named read-outs stand apart in the source and are kept apart here.

Molecular target: recombinant Mcl-1 (residues 172-327) (Homo sapiens (Human), UniProt Q07820)
Experiment: Fluorescence polarization anisotropy competition assay (FITC-Bak or FITC-Bim BH3 peptide) with Mcl-1
Format: binding
Settings: Table 2, FITC-Bak or FITC-Bim peptide competition, Ki converted from IC50, read-out: Ki for Inhibition of Mcl-1

Chain of recombinant Mcl-1 (residues 172-327) (Q07820 172-327): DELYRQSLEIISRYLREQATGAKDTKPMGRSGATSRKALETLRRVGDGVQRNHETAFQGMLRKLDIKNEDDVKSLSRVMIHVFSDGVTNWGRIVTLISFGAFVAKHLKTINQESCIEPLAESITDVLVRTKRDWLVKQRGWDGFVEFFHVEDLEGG

Row | Structure (SMILES) | Ki (Ki bins given in nM) [nM] | Ki (Ki bins given in μM) [nM]
1 | Cc1cc(OCCCc2c(C(=O)NCc3cccc(C(=O)NS(=O)(=O)c4cccc(C#N)c4)c3)[nH]c3c(-c4c(C)nn(C)c4C)cccc23)cc(C)c1Cl [I-30, 3-(3-(4-chloro-3,5-dimethylphenoxy)propyl)-N-(3-(((3-cyanophenyl)sulfonyl)carbamoyl)benzyl)-7-(1,3,5-trimethyl-1H-pyrazol-4-yl)-1H-indole-2-carboxamide] | < 50 | 
2 | CCOC(=O)c1ccc(CNC(=O)c2[nH]c3ccccc3c2CCCOc2cc(C)c(Cl)c(C)c2)o1 [I-56, ethyl 5-((3-(3-(4-chloro-3,5-dimethylphenoxy)propyl)-1H-indole-2-carboxamido)methyl)furan-2-carboxylate] |  | 1000 to 9990
3 | Cc1cc(OCCCc2c3n(c4c(-c5c(C)nn(C)c5C)c(Cl)ccc24)CCCN(Cc2cc(C(=O)O)cc(-c4ccc(O)cc4)c2)C3=O)cc(C)c1Cl [I-306, 5-((8-chloro-1-(3-(4-chloro-3,5-dimethylphenoxy)propyl)-1-oxo-7-(1,3,5-trimethyl-1H-pyrazol-4-yl)-4,5-dihydro-1H-[1,4]diazepino[1,2-a]indol-2(3H)-yl)methyl)-4′-hydroxy-[1,1′-biphenyl]-3-carboxylic acid] | < 50 | 
4 | Cc1cc(OCCCc2c(C(=O)Nc3cccc(C(=O)NS(=O)(=O)c4ccc([N+](=O)[O-])cc4)c3)[nH]c3c(-c4cccnc4C)cccc23)cc(C)c1Cl [I-68, 3-(3-(4-chloro-3,5-dimethylphenoxy)propyl)-7-(2-methylpyridin-3-yl)-N-(3-(((4-nitrophenyl)sulfonyl)carbamoyl)phenyl)-1H-indole-2-carboxamide] | 51 to 100 | 
5 | Cc1cc(OCCCc2c(C(=O)Nc3ccc(C(=O)O)c(N(C)CCN(C)C)c3)[nH]c3c(-c4c(C)nn(C)c4C)c(Cl)ccc23)cc(C)c1Cl [I-92, 4-(6-chloro-3-(3-(4-chloro-3,5-dimethylphenoxy)propyl)-7-(1,3,5-trimethyl-1H-pyrazol-4-yl)-1H-indole-2-carboxamido)-2-((2-(dimethylamino)ethyl)(methyl)amino)benzoic acid] | < 50 | 
6 | Cc1cc(OCCCc2c3n(c4c(-c5c(C)nn(C)c5C)c(Cl)ccc24)[C@@H](C)CN(Cc2ccc(C(=O)O)cn2)C3=O)cc(C)c1Cl [I-149, (S)-6-((7-chloro-10-(3-(4-chloro-3,5-dimethylphenoxy)propyl)-4-methyl-1-oxo-6-(1,3,5-trimethyl-1H-pyrazol-4-yl)-3,4-dihydropyrazino[1,2-a]indol-2(1H)-yl)methyl)nicotinic acid] | < 50 | 
7 | Cc1cc(OCCCc2c(C(=O)NCC(=O)NS(=O)(=O)C3CC3)[nH]c3ccccc23)cc(C)c1Cl [I-9, 3-(3-(4-chloro-3,5-dimethylphenoxy)propyl)-N-(2-(cyclopropanesulfonamido)-2-oxoethyl)-1H-indole-2-carboxamide] | 501 to 999 | 
8 | Cc1cc(OCCCc2c3n(c4c(-c5c(C)nn(C)c5C)cccc24)CCCN(Cc2cc(C(=O)O)n(C)c2)C3=O)cc(C)c1Cl [I-79, 4-((11-(3-(4-chloro-3,5-dimethylphenoxy)propyl)-1-oxo-7-(1,3,5-trimethyl-1H-pyrazol-4-yl)-4,5-dihydro-1H-[1,4]diazepino[1,2-a]indol-2(3H)-yl)methyl)-1-methyl-1H-pyrrole-2-carboxylic acid] | 51 to 100 | 
9 | Cc1cc(OCCCc2c3n(c4c(-c5c(C)nn(C)c5C)c(Cl)ccc24)CCCN(c2cc(C(=O)O)cc(-c4ccncc4)c2)C3=O)cc(C)c1Cl [I-231, 3-(8-chloro-11-(3-(4-chloro-3,5-dimethylphenoxy)propyl)-1-oxo-7-(1,3,5-trimethyl-1H-pyrazol-4-yl)-4,5-dihydro-1H-[1,4]diazepino[1,2-a]indol-2(3H)-yl)-5-(pyridin-4-yl)benzoic acid] | < 50 | 
10 | Cc1cc(OCCCc2c3n(c4c(-c5c(C)nn(C)c5C)cccc24)CCCN(Cc2cc(C(=O)O)cc([N+](=O)[O-])c2)C3=O)cc(C)c1Cl [I-86, 3-((11-(3-(4-chloro-3,5-dimethylphenoxy)propyl)-1-oxo-7-(1,3,5-trimethyl-1H-pyrazol-4-yl)-4,5-dihydro-1H-[1,4]diazepino[1,2-a]indol-2(3H)-yl)methyl)-5-nitrobenzoic acid] | < 50 | 
